Counter-ions that a name gives are not always drawn.
What was measured:
α2A-adrenoceptors = target: T1, α2A-adrenoceptors (Homo sapiens, UniProt P08913); experiment: inhibition of tritiated RX 821002 binding to α2A-adrenoceptors in vitro; design: species or system human (cerebral cortex post-mortem); details: human cerebral cortex; for Ki: [3H]RX 821002 0.2 nM, 0° C., 75 min; for inhibition at 1 µM: 10^-6 M, [3H]RX 821002, read-out: % displacement at 10^-6 M, α2A
T1 construct: Human cerebral cortex obtained at post-mortem; from tissue; host or cells: human cerebral cortex, post-mortem
T1 sequence (P08913 1-465): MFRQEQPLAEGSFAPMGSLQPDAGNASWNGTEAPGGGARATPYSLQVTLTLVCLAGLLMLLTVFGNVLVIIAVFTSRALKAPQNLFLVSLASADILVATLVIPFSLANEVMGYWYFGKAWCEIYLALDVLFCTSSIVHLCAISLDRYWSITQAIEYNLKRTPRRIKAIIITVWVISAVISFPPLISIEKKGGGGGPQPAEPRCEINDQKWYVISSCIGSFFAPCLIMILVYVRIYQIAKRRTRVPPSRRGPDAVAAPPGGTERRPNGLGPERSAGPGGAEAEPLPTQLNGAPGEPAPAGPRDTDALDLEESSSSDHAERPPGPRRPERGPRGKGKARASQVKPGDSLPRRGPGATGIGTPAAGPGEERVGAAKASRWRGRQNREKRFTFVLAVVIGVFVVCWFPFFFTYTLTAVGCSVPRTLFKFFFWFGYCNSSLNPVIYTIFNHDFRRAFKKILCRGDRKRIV
Experimental: Human cerebral cortex obtained at post-mortem was homogenised in ice-cold 0.25M sucrose (1:30 w/v) and centrifuged at 1,000 g at 4° C. for 12 minutes. The supernatant was stored on ice and the pellet was rehomogenised in 0.25M sucrose (1:15 w/v) and centrifuged at 850 g at 4° C. for 12 minutes. Combined supernatants were diluted with 5 mM Tris-HCl (pH 7.5) containing 5 mM ethylenediamine tetraacetic acid (EDTA), readjusted to pH 7.5 (at 25° C.) with 1M sodium hydroxide to 1:80 w/v, and centrifuged at 11,000 g at 4° C. for 10 minutes. The resulting pellet was resuspended in 50 mM Tris-HCl (pH 7.5) containing 5.68 mM L-ascorbic acid and 0.5 mM EDTA, readjusted to pH 7.5 (at 25° C.) with 1M sodium hydroxide to 1:80 w/v, and centrifuged at 11,000 g for 10 minutes. The pellet was stored at -80° C. On the day of the assay the pellet was thawed, resuspended in 50 mM Tris-HCl (pH 7.5) containing 5.68 mM L-ascorbic acid and 5 mM EDTA to 1:80 w/v and centrifuged at 11,000 g for 10 minutes. The final pellet was resuspended in 50 mM Tris-HCl (pH 7.5) containing 5.68 mM L-ascorbic acid and 5 mM EDTA (equivalent to 25 mg wet weight of tissue/ml).
Aliquots (400 μl; equivalent to 10 mg wet weight of tissue/tube) of this suspension were added to tubes containing the ligand (50 μl; 0.2 nM) and distilled water (50 μl; total binding) or phentolamine (50 μl; 50 μM; non-specific binding) or test compound (50 μl; at a single concentration of 10^-6 M or at 10 concentrations ranging from 10^-11 -10^-3 M). The ligand was tritiated RX 821002 (2-(2-methoxy-1,4-[6,7(n)-^3 H]benzodioxan-2-yl)-2-imidazoline) and the mixture was incubated at 0° C. for 75 minutes before the incubation was terminated by rapid filtration.
The filters were washed with ice-cold Tris-HCl buffer and dried. The filters were punched out into vials, scintillation fluid added and radioactivity determined by liquid scintillation counting. The percentage displacement of specific binding of the tritiated ligand was calculated for the single concentration (10^-6 M) of test compound. Displacement curves were then produced for those compounds which displaced ≥50% of specific binding of the tritiated ligand at 10^-6 M using a range of concentrations of the compound. The concentration which gave 50% inhibition of specific binding (IC50) was obtained from the curve. The inhibition coefficient Ki was then calculated using the formula [formula] in which [ligand] is the concentration of the tritiated ligand used and KD is the equilibrium dissociation constant for the ligand.

5-HT1A receptors = target: T2, 5-HT1A receptors (Rattus norvegicus, UniProt P19327); experiment: inhibition of [3H]8-OH-DPAT binding to 5-HT1A receptors in vitro; design: species or system rat (male Sprague-Dawley, hippocampal tissue); details: rat hippocampus, [3H]8-OH-DPAT 2 nM, 25° C., 30 min
T2 sequence (P19327 1-422): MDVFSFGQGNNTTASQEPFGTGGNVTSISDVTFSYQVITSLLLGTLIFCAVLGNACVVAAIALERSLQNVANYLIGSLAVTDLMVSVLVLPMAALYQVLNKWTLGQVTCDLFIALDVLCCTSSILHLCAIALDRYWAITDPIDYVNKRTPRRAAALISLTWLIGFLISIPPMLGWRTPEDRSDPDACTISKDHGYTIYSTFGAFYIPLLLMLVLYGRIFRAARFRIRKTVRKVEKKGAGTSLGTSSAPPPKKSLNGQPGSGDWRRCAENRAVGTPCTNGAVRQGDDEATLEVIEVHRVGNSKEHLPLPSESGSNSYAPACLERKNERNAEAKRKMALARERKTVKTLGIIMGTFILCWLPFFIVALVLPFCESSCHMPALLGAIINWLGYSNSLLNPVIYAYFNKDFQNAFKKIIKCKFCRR
Experimental: Hippocampal tissue from the brains of male Sprague-Dawley rats (Charles River; weight range 150-250 g) was homogenised in ice-cold 50 mM Tris-HCl buffer (pH 7.7 when measured at 25° C., 1:40 w/v) and centrifuged at 30,000 g at 4° C. for 10 minutes. The pellet was rehomogenised in the same buffer, incubated at 37° C. for 10 minutes and centrifuged at 30,000 g at 4° C. for 10 minutes. The final pellet was resuspended in 50 mM Tris-HCl buffer (pH 7.7) containing 4 mM CaCl2. 0.1% L-ascorbic acid and 10 μM pargyline hydrochloride (equivalent to 6.25 mg wet weight of tissue/ml) and used immediately in the binding assay. Aliquots (400 μl; equivalent to 2.5 mg wet weight of tissue/tube) of this suspension were added to tubes containing the ligand (50 μl; 2 nM) and distilled water (50 μl; total binding) or 5-HT (50 μl; 10 μM; non-specific binding) or test compound (50 μl; at a single concentration of 10^-6 M or at 10 concentrations ranging from 10^-11 -10^-3 M). The ligand was [^3 H]8-hydroxy-2-(dipropylamino)tetralin ([^3 H]8-OH-DPAT) and the mixture was incubated at 25° C. for 30 minutes before the incubation was terminated by rapid filtration.

α1-adrenoceptors = experiment: inhibition of 7-methoxy-[3H]prazosin binding to α1-adrenoceptors in vitro; design: species or system rat (male Charles River CD, whole cortical tissue); details: rat whole cortex, 30 min; for Ki: 7-methoxy-[3H]prazosin 0.1 nM, 30° C.
Experimental: Whole cortical tissue from the brains of male Charles River CD rats weighing between 150-250 g were homogenised in ice-cold 50 mM Tris-HCl, pH 7.6 (at 25° C.; 1:40 w/v) and centrifuged at 1000 g at 4° C. for 10 minutes. The supernatant was centrifuged at 30,000 g at 4° C. for 10 minutes. The pellet was rehomogenised in 50 mM Tris-HCl, pH 7.6 (1:40 w/v) and centrifuged at 30,000 g at 4° C. for 10 minutes. The final pellet was resuspended in 50 mM Tris-HCl, pH 7.6 (equivalent to 12.5 mg wet weight of tissue/ml) and used immediately in the binding assay. Aliquots (400 μl; equivalent to 5 mg wet weight of tissue/tube) of this suspension were added to tubes containing the ligand (50 μl; 0.1 nM) and distilled water (50 μl; total binding) or phentolamine (50 μl; 5 μM; non-specific binding) or test compound (50 μl; at a single concentration of 10^-6 M or at 10 concentrations ranging from 10^-11 -10^-3 M). The ligand was 7-methoxy-[^3 H]prazosin and the mixture was incubated at 30° C. for 30 minutes before the incubation was terminated by rapid filtration. The filters were washed with ice-cold Tris-HCl buffer and dried. The filters were punched out into vials, scintillation fluid added and radioactivity determined by liquid scintillation counting. The percentage displacement of specific binding of the tritiated ligand was calculated for the single concentration (10^-6 M) of test compound. […] The concentration which gave 50% inhibition of specific binding (IC50) was obtained from the curve. The inhibition coefficient Ki was then calculated using the formula [formula] in which [ligand] is the concentration of the tritiated ligand used and KD is the equilibrium dissociation constant for the ligand.

α2D-adrenoceptors = target: T3, α2D-adrenoceptors (Rattus norvegicus, UniProt P22909); experiment: inhibition of tritiated idazoxan binding to α2D-adrenoceptors in vitro; design: species or system rat (male Charles River CD, frontal cortical tissue); details: rat frontal cortex; for Ki: [3H]idazoxan 1 nM, 0° C., 75 min
T3 sequence (P22909 1-465): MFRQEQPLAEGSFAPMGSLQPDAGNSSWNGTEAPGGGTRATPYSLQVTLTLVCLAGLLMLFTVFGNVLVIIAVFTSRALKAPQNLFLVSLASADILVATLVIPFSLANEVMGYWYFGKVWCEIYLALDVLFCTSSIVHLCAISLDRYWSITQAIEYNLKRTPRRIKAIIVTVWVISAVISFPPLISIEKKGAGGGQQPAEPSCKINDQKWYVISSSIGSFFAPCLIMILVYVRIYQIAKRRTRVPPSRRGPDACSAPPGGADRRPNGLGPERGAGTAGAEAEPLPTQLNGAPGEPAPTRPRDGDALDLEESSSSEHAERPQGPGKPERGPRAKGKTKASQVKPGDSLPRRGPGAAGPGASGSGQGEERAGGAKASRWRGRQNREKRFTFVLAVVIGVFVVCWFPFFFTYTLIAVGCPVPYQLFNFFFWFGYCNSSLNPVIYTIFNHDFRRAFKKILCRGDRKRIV

D2 dopamine receptors = D2 dopamine receptors (Rattus norvegicus, UniProt P61169); experiment: inhibition of tritiated (S)-sulpiride binding to D2 dopamine receptors in vitro; design: species or system rat (male Charles River CD, striatal tissue); details: rat striatum, tritiated (S)-sulpiride 1 nM, 4° C., 40 min
D2 dopamine receptors, sequence (P61169 whole entry): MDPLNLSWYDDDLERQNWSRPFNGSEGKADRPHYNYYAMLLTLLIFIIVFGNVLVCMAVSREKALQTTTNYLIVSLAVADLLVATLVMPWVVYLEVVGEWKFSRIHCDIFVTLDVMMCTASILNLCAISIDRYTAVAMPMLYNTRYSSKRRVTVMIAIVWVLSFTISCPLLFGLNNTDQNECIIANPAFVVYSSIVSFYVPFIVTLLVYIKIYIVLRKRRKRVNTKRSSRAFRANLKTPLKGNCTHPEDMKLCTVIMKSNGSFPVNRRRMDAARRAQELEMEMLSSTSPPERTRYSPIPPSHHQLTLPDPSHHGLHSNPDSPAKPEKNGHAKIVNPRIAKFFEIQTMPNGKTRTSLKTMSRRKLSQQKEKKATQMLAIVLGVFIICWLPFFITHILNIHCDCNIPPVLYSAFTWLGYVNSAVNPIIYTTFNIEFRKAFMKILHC

| Structure (SMILES) | Ki (α2A-adrenoceptors) | Ki (5-HT1A receptors) | Ki (α1-adrenoceptors) | Ki (α2D-adrenoceptors) | Ki (D2 dopamine receptors) | inhibition at 1 µM (α2A-adrenoceptors) | % displacement at 10^-6 M, α1 (α1-adrenoceptors; 10^-6 M, 7-methoxy-[3H]prazosin, 1 µM) | inhibition at 1 µM (α2D-adrenoceptors; 10^-6 M, [3H]idazoxan, read-out: % displacement at 10^-6 M, α2D) | Ki (α1-adrenoceptors; hydrochloride) |
| --- | --- | --- | --- | --- | --- | --- | --- | --- | --- |
| Cn1c(N)c(CN2CCN(c3cccc4c3OCCO4)CC2)c(=O)n1-c1ccccc1 [Example 2, 3-amino-4-[4-(1,4-benzodioxan-5-yl)piperazin-1-ylmethyl]-2-methyl-1-phenyl-3-pyrazolin-5-one] | 29 nM | 26 nM | 401 nM | 307 nM | 196 nM | – | – | – | – |
| Cc1ccccc1N1CCN(Cc2c(N)n(C)n(-c3ccccc3)c2=O)CC1 [Example 3, 3-Amino-2-methyl-4-[4-(2-methylphenyl)piperazin-1-ylmethyl]-1-phenyl-3-pyrazolin-5-one] | – | > 500 nM | – | – | > 500 nM | 98% | 89% | 56% | – |
| Cn1c(N)c(CN2CCN(c3cccc4ccccc34)CC2)c(=O)n1-c1ccccc1 [Example 4, 3-Amino-2-methyl-4-[4-(1-naphthyl)piperazin-1-ylmethyl]-1-phenyl-3-pyrazolin-5-one] | – | 39 nM | 186 nM | > 500 nM | 112 nM | 82% | – | – | – |
| CCCn1c(N)c(CN2CCN(c3cccc4c3OCCO4)CC2)c(=O)n1-c1ccccc1 [Example 5, 3-Amino-4-[4-(1,4-benzodioxan-5-yl)piperazin-1-ylmethyl]-1-phenyl-2-propyl-3-pyrazolin-5-one] | – | 16 nM | 41 nM | 121 nM | 176 nM | 73% | – | – | – |
| C=CCn1c(N)c(CN2CCN(c3cccc4c3OCCO4)CC2)c(=O)n1-c1ccccc1 [Example 6, 2-Allyl-3-amino-4-[4-(1,4-benzodioxan-5-yl)piperazin-1-ylmethyl]-1-phenyl-3-pyrazolin-5-one] | – | 22 nM | 45 nM | 111 nM | 139 nM | 86% | – | – | – |
| Cn1c(N)c(CN2CCN(c3cccc4ccoc34)CC2)c(=O)n1-c1ccccc1 [Example 7, 3-Amino-4-[4-(7-benzo[b]furanyl)piperazin-1-ylmethyl]-2-methyl-1-phenyl-3-pyrazolin-5-one] | – | 24 nM | 19 nM | 165 nM | 177 nM | 91% | – | – | – |
| CC(C)Oc1ccccc1N1CCN(Cc2c(N)n(C)n(-c3ccccc3)c2=O)CC1 [Example 8, 3-Amino-4-[4-(2-isopropoxyphenyl)piperazin-1-ylmethyl]-2-methyl-1-phenyl-3-pyrazolin-5-one] | – | 106 nM | 12 nM | 21 nM | 22 nM | 100% | – | – | – |
| Nc1c(CN2CCN(c3cccc4c3OCCO4)CC2)c(C2CC2)nn1-c1ccccc1 [Example 10, 5-amino-4-[4-(1,4-benzodioxan-5-yl)piperazin-1-ylmethyl]-3-cyclopropyl-1-phenylpyrazole] | 2 nM | 25 nM | 31 nM | 162 nM | 374 nM | – | – | – | – |
| Nc1nn(-c2ccccc2)c(N)c1CN1CCN(c2cccc3c2OCCO3)CC1 [Example 11, 3,5-diamino-4-[4-(1,4-benzodioxan-5-yl)piperazin-1-ylmethyl]-1-phenylpyrazole] | – | 16 nM | > 500 nM | 60 nM | 309 nM | 85% | – | – | – |
| Nc1c(CN2CCN(c3cccc4c3OCCO4)CC2)c(-c2ccccc2)nn1-c1ccccc1 [Example 12, 5-Amino-4-[4-(1,4-benzodioxan-5-yl)piperazin-1-ylmethyl]-1,3-diphenylpyrazole] | – | 19 nM | 41 nM | 192 nM | > 500 nM | 99% | – | – | – |
| Cn1nc(C2CC2)c(CN2CCN(c3cccc4c3OCCO4)CC2)c1N [Example 18, 5-Amino-4-[4-(1,4-benzodioxan-5-yl)piperazin-1-ylmethyl]-3-cyclopropyl-1-methylpyrazole 2.3 hydrochloride] | – | 27 nM | – | 69 nM | – | 98% | – | – | 204 nM |

From patent publication US6114334A, “Piperazine derivatives as therapeutic agents” (Knoll Aktiengesellschaft, priority 1995, dated 2000)
